This note sets out measurements from PubChem BioAssay (NCI).

Where “and” joins values, the source holds several entries; their conditions need not be identical. Equal values may be shown once.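 96-well plates; 48 h exposure; 5 concentrations. Endpoints by linear interpolation between flanking doses. Not reached: highest tested concentration assigned. At the GI50, growth is halved. TGI marks complete inhibition of growth.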

Among the test systems are MDA-N; M19-MEL melanoma; XF 498 CNS; LXFL 529 NSCLC; RXF-631 renal; SNB-78 CNS; DMS 114 small cell lung; HOP-18 NSCLC; KM20L2 colon.
Common to all, as to experiment: inhibition of tumour cell growth, NCI panel, 48 h

The molecule `C=C1C(=O)OC2C1C(OC(=O)/C(C)=C/C)CC(O)(CCl)C1C(OC(C)=O)C=C(C)C21O` (centres undefined) had a TGI in the assay with MDA-N of 41.8 µM.

For `Cc1cc(N(CCC#N)CCC#N)ccc1N=Nc1ccccc1[N+](=O)[O-]`, the TGI in the assay on M19-MEL melanoma was more than 100 µM; in the assay on XF 498 CNS, 80.9 µM; in the assay on LXFL 529 NSCLC it was more than 100 µM; with RXF-631 renal it was more than 100 µM; in the assay with SNB-78 CNS it was more than 100 µM; in the assay with DMS 114 small cell lung, more than 100 µM. Further, the TGI in the assay with HOP-18 NSCLC is more than 100 µM.

`CC(=O)C(C(=N)C#N)C(=O)Nc1ccccc1` (centres undefined) gave a TGI with MDA-N of more than 100 µM.

As for `CC1=CCP(C(F)(F)F)P(C(F)(F)F)C1` (centres undefined), the TGI with M19-MEL melanoma, in the assay with KM20L2 colon, in the assay on LXFL 529 NSCLC, with RXF-631 renal, in the assay with SNB-78 CNS and in the assay with DMS 114 small cell lung was more than 100 µM throughout. Also, in the assay with HOP-18 NSCLC, the TGI is more than 100 µM.

Take `C=CC[P@@]1(=O)O[C@H](c2ccccc2)C(C)N1C(C)C` (some centres undefined): the TGI in the assay on M19-MEL melanoma, with XF 498 CNS, in the assay with LXFL 529 NSCLC, in the assay with RXF-631 renal, with SNB-78 CNS and in the assay on DMS 114 small cell lung was more than 100 µM in each case. Besides, the TGI in the assay with HOP-18 NSCLC was more than 100 µM.

Consider `CC1/C=C/C=C/CC/C=C/C=C/C=C/C=C/C(OC2OC(C)C(O)C(N)C2O)CC2OC(CC(O)C(O)CCC(O)CC(O)CC(O)CC(=O)OC(C)C(C)C1O)CC(O)C2C(=O)O` (centres undefined), for which, in the assay with MDA-N, the GI50 was 25.6 µg/mL; the TGI was 31.8 µM and 46.7 µg/mL.

Regarding `COC(=O)C1Cc2c(n(C)c3ccccc23)C(c2ccccc2)N1` (centres undefined), the TGI with M19-MEL melanoma, with KM20L2 colon, in the assay on LXFL 529 NSCLC, in the assay with RXF-631 renal, with SNB-78 CNS and with DMS 114 small cell lung was more than 100 µM each time. In addition, the TGI with HOP-18 NSCLC was more than 100 µM.

Consider `CC(C)(C)c1ccc(Oc2ccc(C#N)c(C#N)c2)c(C(C)(C)C)c1`, for which the TGI was more than 100 µM in the assay with KM20L2 colon; 35.4 µM with XF 498 CNS; more than 100 µM in the assay on LXFL 529 NSCLC; more than 100 µM in the assay on RXF-631 renal; more than 100 µM with SNB-78 CNS; more than 52.2 µM in the assay on DMS 114 small cell lung. Moreover, the TGI in the assay on HOP-18 NSCLC was more than 100 µM.

Turning to `O=C(c1ccccc1)c1ccc2cccc(O)c2n1`, the TGI was more than 100 µM in the assay with M19-MEL melanoma; more than 100 µM with KM20L2 colon; more than 100 µM in the assay with XF 498 CNS; more than 100 µM in the assay on RXF-631 renal; more than 100 µM in the assay with SNB-78 CNS; 39.1 µM with DMS 114 small cell lung. Further, the TGI in the assay with HOP-18 NSCLC is more than 100 µM.

On to `Cc1c2ncccc2c(C)c2c1[nH]c1ccc(O)cc12`, for which, in the assay with MDA-N, the GI50 is 9.69 µM; the TGI is 17.9 µM and 47.5 µM.

Take `CCOC(=O)c1[nH]c2cccc3c2c1CC(Br)C3=O` (centres undefined): the TGI with MDA-N was 24.9 µM.

As for `COc1c2c(c(OC)c3c(=O)cc(C/C(=N/NC(=O)C[n+]4ccccc4)C(=O)Nc4cc(C)ccc4C)oc13)OCO2`, the TGI in the assay with M19-MEL melanoma, in the assay with KM20L2 colon, in the assay on LXFL 529 NSCLC, in the assay on SNB-78 CNS and in the assay on DMS 114 small cell lung was more than 100 µM each time.

As to `O=C1C2c3[nH]c4ccccc4c3C3CCSCC3C2C(=O)N1c1ccccc1` (centres undefined), the TGI in the assay with M19-MEL melanoma, with KM20L2 colon, with XF 498 CNS, with LXFL 529 NSCLC and in the assay with SNB-78 CNS was more than 100 µM each time.

With `Cc1ccc(C)c(NC(=O)CC2C(=O)Nc3ccccc3S2(=O)=O)c1` (centres undefined), the TGI with M19-MEL melanoma was more than 100 µM; in the assay on KM20L2 colon, more than 100 µM; in the assay with XF 498 CNS, 61.6 µM; with LXFL 529 NSCLC, more than 100 µM; in the assay on RXF-631 renal it was more than 100 µM; with SNB-78 CNS, more than 100 µM. Further, the TGI in the assay on DMS 114 small cell lung is more than 100 µM.

For `COCC1N=C(c2ccc(OC)c(OCc3ccccc3)c2OC)O[C@H]1c1ccccc1` (some centres undefined), the TGI in the assay on M19-MEL melanoma was 53.8 µM; in the assay with KM20L2 colon, 41.1 µM; in the assay on LXFL 529 NSCLC it was 65 µM; in the assay on SNB-78 CNS, 96.2 µM; in the assay on DMS 114 small cell lung, 44.9 µM.

For `N.N.NCCCCN.O=C([O-])CC(=O)[O-].O=C([O-])CC(=O)[O-].[Pt+4].[Pt+4]`, the GI50 in the assay with KM20L2 colon, in the assay on LXFL 529 NSCLC, in the assay on SNB-78 CNS and in the assay with HOP-18 NSCLC was more than 100 µM in each case. Further, the TGI in the assay on KM20L2 colon, in the assay with LXFL 529 NSCLC, with SNB-78 CNS and in the assay with HOP-18 NSCLC was more than 100 µM in each case.

As to `O=C(O)C(Cc1ccccc1-c1ccccc1)C(=O)O`, the TGI in the assay on MDA-N is more than 100 µM.

Consider `N#C[C@]12CC3(CC[C@H]1CC1(C2)OCCO1)OCCO3`, for which the TGI in the assay with M19-MEL melanoma, with KM20L2 colon, with LXFL 529 NSCLC, in the assay with RXF-631 renal, with SNB-78 CNS and in the assay with DMS 114 small cell lung was more than 100 µM in each case. This molecule yielded a TGI in the assay with HOP-18 NSCLC of more than 100 µM.

For `Brc1nc2c3ccccc3ncn2c1Br`, the TGI was more than 100 µM in the assay on M19-MEL melanoma; more than 100 µM in the assay on KM20L2 colon; 46.9 µM with XF 498 CNS; more than 100 µM with LXFL 529 NSCLC; more than 100 µM in the assay with RXF-631 renal; more than 100 µM in the assay with SNB-78 CNS. For the same molecule, the TGI stood at 98.4 µM in the assay with DMS 114 small cell lung and 47.8 µM with HOP-18 NSCLC.

On to `Cc1c2cc[n+](C)cc2c(C)c2c1[nH]c1ccc(OC(C)C)cc12`, for which the TGI is 6.14 µM and 7.31 µM in the assay on M19-MEL melanoma; 44.3 µM and 39.8 µM in the assay on KM20L2 colon; 5.04 µM and 11.3 µM with LXFL 529 NSCLC; 6.56 µM and > 25.2 µM in the assay with SNB-78 CNS; 27.1 µM and 35.4 µM in the assay on HOP-18 NSCLC. In addition, the GI50 with SNB-78 CNS was 0.427 µM and 3.93 µM.

In the case of `CCCCCCC(O)C/C=C/CCCCCC/C(C(=O)OC)=C(/O)C(=O)OCC` (centres undefined), the TGI with M19-MEL melanoma, with XF 498 CNS, in the assay with LXFL 529 NSCLC, in the assay on RXF-631 renal, in the assay with SNB-78 CNS and in the assay with DMS 114 small cell lung was more than 100 µM in each case. Moreover, the TGI in the assay on HOP-18 NSCLC is more than 100 µM.

As to `O=C(O)C1CCCN1Cc1c[nH]c2ccccc12` (centres undefined), the TGI with MDA-N was more than 100 µM.

On to `O=C(Nc1ccccc1)O/N=C1/CCCC/C1=C\c1ccccc1`, for which the TGI with M19-MEL melanoma came out at 34 µM; with KM20L2 colon, 43.2 µM; in the assay on LXFL 529 NSCLC, 21.4 µM; in the assay on RXF-631 renal it was 47.3 µM; with SNB-78 CNS, 33 µM; in the assay on DMS 114 small cell lung it was 24.8 µM. In addition, the TGI in the assay with HOP-18 NSCLC came to 29.9 µM.

Take `CC(=O)CC(=O)CCCC(=O)Nc1ccc(Cl)cc1Cl`: the TGI with KM20L2 colon, in the assay with XF 498 CNS, with LXFL 529 NSCLC, with RXF-631 renal and with HOP-18 NSCLC was more than 100 µM in each case.

As for `O=[N+]([O-])c1ccc(OCCNc2cccc3ccccc23)cc1`, the TGI in the assay with M19-MEL melanoma, with KM20L2 colon, in the assay on XF 498 CNS, with LXFL 529 NSCLC, in the assay on RXF-631 renal and in the assay with DMS 114 small cell lung was more than 100 µM each time. This molecule gave a TGI with HOP-18 NSCLC of more than 100 µM.

`CC(C)SC1SCC2C(=O)N(C)C3(CC3C)C(=O)OCC(NC(=O)c3nc4ccccc4cc3O)C(=O)NC(C)C(=O)N(C)C1C(=O)N(C)C1(CC1C)C(=O)OCC(NC(=O)c1nc3ccccc3cc1O)C(=O)NC(C)C(=O)N2C` (centres undefined): the TGI with MDA-N was less than 0.0001 µM.

Regarding `CC1(c2ccccc2)CC12C(=O)NC(=O)NC2=O` (centres undefined), the TGI in the assay with M19-MEL melanoma, in the assay with KM20L2 colon, in the assay with XF 498 CNS, in the assay with LXFL 529 NSCLC, in the assay on SNB-78 CNS and with DMS 114 small cell lung was more than 100 µM throughout.

On to `O=C1c2cccnc2-c2nc(-c3ccccn3)cc3c2c1nc1ccccc13`, for which, in the assay with MDA-N, the GI50 is 0.259 µM and the TGI worked out at 1.25 µM.

In the assay with MDA-N, `O=C1NC(=O)C2=C1CCC2O` (centres undefined) showed a TGI of more than 100 µM.

Turning to `CC1=C2C(=CC(C)(CO)C2O)C(=O)C(C)(O)C12CC2` (centres undefined), the TGI in the assay on M19-MEL melanoma was found to be 0.0116 µM; with KM20L2 colon, 0.0137 µM; in the assay with LXFL 529 NSCLC it was 0.0292 µM; in the assay on RXF-631 renal, 0.0359 µM; in the assay on SNB-78 CNS, 0.0479 µM; in the assay with DMS 114 small cell lung it was 0.00769 µM. The molecule further came in with a TGI with HOP-18 NSCLC of 0.0331 µM.

For `NC(=O)c1csc(C2O[C@@H](COP(=O)(O)OP(=O)(O)OC[C@H]3OC(n4cnc5c(N)ncnc54)[C@H](O)[C@@H]3O)[C@H](O)[C@@H]2O)n1` (some centres undefined), the TGI with KM20L2 colon, in the assay on XF 498 CNS, in the assay on LXFL 529 NSCLC, in the assay with SNB-78 CNS, in the assay on DMS 114 small cell lung and in the assay with HOP-18 NSCLC was more than 100 µM in each case.

With `CC(C)(C)C(=O)Nc1ccccc1Br`, the TGI in the assay on M19-MEL melanoma, in the assay with KM20L2 colon, with XF 498 CNS, with LXFL 529 NSCLC and in the assay on DMS 114 small cell lung was more than 100 µM each time.

With `COC(=O)C(=O)C(C(=O)C(=O)Nc1ccc([N+](=O)[O-])cc1[N+](=O)[O-])c1nc2ccc([N+](=O)[O-])cc2[nH]c1=O` (centres undefined), the TGI in the assay on M19-MEL melanoma, in the assay on KM20L2 colon, in the assay with XF 498 CNS, with LXFL 529 NSCLC, in the assay with RXF-631 renal and in the assay on SNB-78 CNS was more than 100 µM in each case. The TGI in the assay on DMS 114 small cell lung and in the assay on HOP-18 NSCLC was more than 100 µM throughout.

For the molecule `O=C1C(c2ccc(Cl)cc2)=[N+]([O-])c2ccccc21`, the TGI is more than 100 µM in the assay with M19-MEL melanoma; 52.1 µM in the assay with KM20L2 colon; 34.7 µM in the assay with XF 498 CNS; 18.6 µM in the assay on LXFL 529 NSCLC; 48.4 µM with RXF-631 renal; 14.3 µM with DMS 114 small cell lung. The TGI in the assay with HOP-18 NSCLC turned out to be 58.9 µM.

Take `O=C1CC2(CCCc3sccc32)C(=O)N1` (centres undefined): the TGI in the assay on MDA-N was more than 100 µM.

For `COC(=O)[C@H](C)[C@H]1CC[C@@](C)([C@H]2CC3C(C)(C)[C@H]4CCC(C)=C[C@H]4C[C@@]3(C)O2)OO1` (some centres undefined), the TGI was 28.8 µM in the assay on M19-MEL melanoma; 27.5 µM in the assay with KM20L2 colon; 21.8 µM in the assay with XF 498 CNS; 7.79 µM with LXFL 529 NSCLC; 28.9 µM in the assay on SNB-78 CNS; 14.2 µM in the assay with DMS 114 small cell lung.

`Nc1nc(SCC(=O)O)[nH]c(=O)c1N` registered a TGI in the assay on MDA-N of more than 100 µM.
